Measured values as given in US7060875B2, “Methods for delaying leaf senescence using the ORE7 gene” (Postech Foundation, priority 2001, dated 2006).
Entries after “also recorded” stand apart in the source; their conditions may differ.

Experiments:
[1] = system: longevity-extended mutant ore7; format: in vivo, Arabidopsis thaliana; settings: ore7 mutant leaves at 25 DAG; 50 μM ABA or 50 μM MeJA in MES buffer, or 4.5 μM ethylene gas; 22° C., continuous light
Method: (§1) In order to measure photosynthesis activity, a method of Oh et al. (Oh S. A. et al., Plant Mol. Biol., 30: 939, 1996), was used. First, leaves at the respective DAG were dark-treated for 15 minutes and measured for fluorescence of chlorophylls using Plant Efficiency Analyzer (Hansatech). The photosynthesis activity was expressed as photochemical efficiency of photosystem II (PS II) using a fluorescent property of chlorophylls. The photochemical efficiency was expressed as the ratio of maximum variable fluorescence (Fv) to maximum value of fluorescence (Fm) (Fv/Fm). As the ratio is increased, the photosynthesis activity improves.
(§2) Further, in the present invention, a change in leaf longevity of the ore7 mutant according to treatment with phytohormones, such as ABA, MeJA and ethylene that are involved in senescence regulation was examined by measuring changes in photosynthesis activity and chlorophyll content. 12 independent leaves at 25 DAG were floated in 2 ml of MES buffer containing 50 μM ABA or 50 μM MeJA. Treatment with ethylene was carried out by culturing Arabidopsis thaliana in a glass box containing 4.5 μM ethylene gas. As a negative control group, MES buffer not containing ABA or MeJA was used. The treatments with phytohormones as described above were carried out for three days at 22° C. with continuous exposure to light. The chlorophyll content and the photosynthesis activity were measured in the same manner as described in Example 2.

[2] = system: wild type Arabidopsis thaliana (Col); assay: Chlorophyll content of leaves after phytohormone treatment; format: in vivo; settings: wild type leaves at 25 DAG; 50 μM ABA or 50 μM MeJA in MES buffer, or 4.5 μM ethylene gas; 22° C., continuous light
Method: (§3) In order to measure the chlorophyll content, the respective sample leaves were boiled in 95% ethanol at 80° C., thereby extracting chlorophyll. The chlorophyll content was measured at absorbance of 648 nm and 664 nm, and expressed as chlorophyll concentration per fresh weight of leaves (Vermon et al., Anal. Chem., 32:1142–1150, 1960).
as §2

[3] = system: longevity-extended mutant ore7; format: in vivo, Arabidopsis thaliana; settings: ore7 mutant leaves at 25 DAG; 50 μM ABA or 50 μM MeJA in MES buffer, or 4.5 μM ethylene gas; 22° C., continuous light; remark: listed apart in the source
Method: as §3, §2

[4] = system: wild type Arabidopsis thaliana (Col); assay: Photosynthesis activity (Fv/Fm of PS II) of leaves after phytohormone treatment; format: in vivo; settings: wild type leaves at 25 DAG; 50 μM ABA or 50 μM MeJA in MES buffer, or 4.5 μM ethylene gas; 22° C., continuous light
Method: as §1, §2

[5] = system: wild type Arabidopsis thaliana (Col); assay: Northern blot analysis of SEN4 expression after phytohormone treatment; format: in vivo; settings: wild type compared to ore7 mutant; 0, 3, 4 and 5 days after treatment

| Compound | change in photosynthesis activity [1] | change in chlorophyll content [2] | reduction in chlorophyll content [3] | change in photosynthesis activity [4] | expression of SEN4 gene [5] |
| --- | --- | --- | --- | --- | --- |
| C=C [ethylene] | slight decrease | significantly reduced | became blunt | significantly reduced; also recorded: rapidly decreased | highly increased |
| CC1=CC(=O)CC(C)(C)[C@@]1(O)/C=C/C(C)=C\C(=O)O [ABA, abscisic acid] | slight decrease | significantly reduced | became blunt | significantly reduced; also recorded: rapidly decreased | highly increased |
| CC/C=C\CC1C(=O)CCC1CC(=O)OC (stereo not drawn) [MeJA, methyl jasmonate] | slight decrease | significantly reduced | became blunt | significantly reduced; also recorded: rapidly decreased | highly increased |
